The results in this text go back to ChEMBL document CHEMBL1152311, “A multipronged approach to the study of peruvian ethnomedicinal plants: a legacy of the ICBG-Peru Project” (J Nat Prod, 2009).

In this assay the test system is Mycobacterium tuberculosis. Description: Antituberculosis activity against multidrug-resistant Mycobacterium tuberculosis. In kind it is functional, organism-based.

As for `C[C@H](C/C=C\C(C)(C)OO)[C@H]1CC[C@@]2(C)[C@@H]3CC[C@H]4C(C)(C)[C@@H](O)CC[C@@]45C[C@@]35CC[C@]12C`, the IC50 came to 27.3 µM.

Broadly, the IC50 is the concentration needed to halve the response being measured. Read a high IC50 as weaker potency in that assay.
